Values of other authors, collected in US20080221048A1, “Lyophilized azithromycin formulation” (APP Pharmaceuticals, LLC., priority 2004, published 2008).
Like-named read-outs stand apart in the source and are kept apart here.

Details: for time diluted azithromycin for injection is stable: diluted to 1.0-2.0 mg/mL

- time diluted azithromycin for injection is stable (at or below room temperature (30° C. or 86° F.)): 24 h
- time diluted azithromycin for injection is stable (stored under refrigeration (5° C. or 41° F.)): 170 h
- time reconstituted azithromycin solution is stable (reconstituted solution (about 100 mg/mL), stored below 30° C. or 86° F.): 24 h
Compound: CC[C@H]1OC(=O)[C@H](C)[C@@H](O[C@H]2C[C@@](C)(OC)[C@@H](O)[C@H](C)O2)[C@H](C)[C@@H](OC2O[C@H](C)C[C@H](N(C)C)[C@H]2O)C(C)(O)C[C@@H](C)CN(C)[C@H](C)[C@@H](O)[C@]1(C)O (stereo in doubt) [azithromycin, (2R,3S,4R,5R,8R,10R,11R,12S,13S,14R)-13-[(2,6-dideoxy-3-C-methyl-3-O-methyl-α-L-ribo-hexo-pyranosyl)oxy]-2-ethyl-3,4,10-trihydroxy-3,5,6,8,10,12,14-heptamethyl-11-[[3,4,6-trideoxy-3-(dimethylamino)-β-D-xylo-hexopyranosyl]oxy]-1-oxa-6-azacyclopentadecan-15-one]
